The values below come from patent US6951881B2, “(1-substituted-indol-3-yl) alkylidenehydrazinecarboximidamide derivatives as 5-hydroxytryptamine-6 ligands” (Wyeth, priority 2002, dated 2005).

This experiment addresses T1, human cloned 5-HT6 receptors (Homo sapiens, UniProt P50406).
T1 construct: expressed in transfected cells; host or cells: HeLa cells
It counts as binding. The note with it: for inhibition at 0.01 µM: test compound dose 10 nM.

Where [1] appears, read: test compound dose 1000 nM, displacement of [3H]-LSD.
The mark [2] stands for this setting: test compound dose 100 nM, displacement of [3H]-LSD, read-out: % Inhibition.
[3] abbreviates: test compound dose 100 nM, displacement of [3H]-LSD.

pKi: −log10 of the molar value. Read-outs that look alike come from different tables or passages of the source.

T1 sequence (P50406 whole entry): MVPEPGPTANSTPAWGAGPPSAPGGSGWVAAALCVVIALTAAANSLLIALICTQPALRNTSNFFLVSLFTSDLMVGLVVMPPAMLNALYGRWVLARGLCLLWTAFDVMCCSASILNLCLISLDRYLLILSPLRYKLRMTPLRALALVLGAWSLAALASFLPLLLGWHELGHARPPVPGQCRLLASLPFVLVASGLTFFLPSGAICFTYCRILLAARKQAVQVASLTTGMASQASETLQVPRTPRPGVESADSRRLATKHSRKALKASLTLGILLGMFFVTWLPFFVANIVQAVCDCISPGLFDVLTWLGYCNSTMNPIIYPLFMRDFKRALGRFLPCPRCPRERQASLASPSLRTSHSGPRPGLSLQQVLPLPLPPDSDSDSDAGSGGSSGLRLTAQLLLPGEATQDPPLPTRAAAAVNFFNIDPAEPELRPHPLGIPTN

A word on the inhibition: it is the change of the read-out against control, counted positive when it falls. In the case of `CN=C(NCc1ccccc1)NN=Cc1c(-c2ccc(Cl)cc2)[nH]c2ccccc12` [Example 118, 2-{[2-(4-chlorophenyl)-1H-indol-3-yl]methylidene}-N-benzyl-N′-methyl-1hydrazinecarboximidamide], under setting [1], testing at 1 µM gave an inhibition of 56.2%.
Same read-out and setting: as for `CCCNC(=N)NN=Cc1c(-c2ccc(Cl)cc2)[nH]c2ccccc12` [Example 119, 2-{[2-(4-chlorophenyl)-1H-indol-3-yl]methylidene}-N-propyl-1hydrazinecarboximidamide], the figure is 86%.
Same read-out and setting: as for `CCCNC(=NC)NN=Cc1c(-c2ccc(Cl)cc2)[nH]c2ccccc12` [Example 120, 2-{[2-(4-chlorophenyl)-1H-indol-3-yl]methylidene}-N′-methyl-N-propyl-1hydrazinecarboximidamide], the figure is 49.9%; as for `CNC(=N)NN=Cc1c(-c2ccc(Cl)cc2)[nH]c2ccccc12` [Example 121, 2-{[2-(4-chlorophenyl)-1H-indol-3-yl]methylidene}-N-methyl-1hydrazinecarboximidamide], 90.5%; as for `CN=C(NC)NN=Cc1c(-c2ccc(Cl)cc2)[nH]c2ccccc12` [Example 122, 2-{[2-(4-chlorophenyl)-1H-indol-3-yl]methylidene}-N,N′-dimethyl-1hydrazinecarboximidamide], 38.4%.
`CCCCCNC(=N)NN=Cc1c(-c2ccc(Cl)cc2)[nH]c2ccccc12` [Example 123, 2-{[2-(4-chlorophenyl)-1H-indol-3-yl]methylidene}-N-pentyl-1hydrazinecarboximidamide] registered an inhibition at 1 µM under setting [1] of 70.4%.
On the same count and under the same terms, as for `CCCCCNC(=NC)NN=Cc1c(-c2ccc(Cl)cc2)[nH]c2ccccc12` [Example 124, 2-{[2-(4-chlorophenyl)-1H-indol-3-yl]methylidene}-N′-methyl-N-pentyl-1hydrazinecarboximidamide], the figure is 74%.
In the case of `C/C(=N\NC(=N)N)c1c(-c2ccc(Cl)cc2Cl)[nH]c2ccc(Cl)cc12` [Example 127, 2-{[5-Chloro-2-(2,4-dichlorophenyl)-1H-indol-3-yl]ethylidene}hydrazinecarboximidamide], 0.1 µM produced 50.6% inhibition.
On the same count and under the same terms, as for `C/C(=N\NC(=N)N)c1c(-c2ccc(Cl)cc2Cl)n(C)c2ccc(Cl)cc12` [Example 128, 2-{[5-Chloro-2-(2,4-dichlorophenyl)-1-methyl-1H-indol-3-yl]ethylidene}hydrazinecarboximidamide], the figure is 57.3%.
For `C/C(=N\NC(=N)N)c1c(-c2sccc2C)[nH]c2ccccc12` [Example 133, 2-{[2-(2-(3-methyl-thienyl))-1H-indol-3-yl]-ethylidene}hydrazinecarboximidamide], the inhibition at 0.1 µM under setting [2] came to 63.2%.
One may read the % Inhibition as how much of the control response was suppressed. Read a low % Inhibition as little suppression. `CC(=NNC(=N)N)c1c(-c2ccc(-c3ccccc3)cc2)[nH]c2ccc(Cl)cc12` [Example 141, 2-[(2-biphenyl-5-chloro-1H-indol-3-yl)-ethylidene]hydrazinecarboximidamide]: the “% Inhibition” value under setting [3] is on record as 33.6%.
Still for that read-out and setting: then `CC(=NNC(=N)N)c1c(-c2ccc(-c3ccccc3)cc2)n(C)c2ccc(Cl)cc12` [Example 143, 2-[(2-biphenyl-5-chloro-1-methyl-1H-indol-3-yl)-ethylidene]hydrazinecarboximidamide], with 34.6%.
Consider `C/C(=N\NC(=N)N)c1c(-c2sccc2C)n(C)c2ccccc12` [Example 146, 2-{[1-methyl-2-(2-(3-methyl-thienyl))-1H-indol-3-yl]-ethylidene}hydrazinecarboximidamide], for which the inhibition at 0.1 µM under setting [2] is 46.1%.
Regarding `N=C(N)N/N=C1\CCCc2[nH]c3ccc(Cl)cc3c21` [Example 152, 2-(6-Chloro-1,2,3,9-tetrahydro-4H-carbazol-4-ylidene)hydrazine-carboximidamide], the inhibition at 1 µM under setting [1] came to 99.1%.
The same measure, in the same setting: as for `Clc1ccc2[nH]c3c(c2c1)C(=NNC1=NCCN1)CCC3` [Example 153, 6-chloro-1,2,3,9-tetrahydro-4H-carbazol-4-one 4,5-dihydro-1H-imidazol-2-ylhydrazone], the figure is 97%.
The same measure, in the same setting: as for `CN(N=C1CCCc2[nH]c3ccc(Cl)cc3c21)C1=NCCN1` [Example 154, 6-chloro-1,2,3,9-tetrahydro-4H-carbazol-4-one 4,5-dihydro-1H-imidazol-2-yl(methyl)hydrazone], the figure is 87.1%.
On the same count and under the same terms, as for `N=C(N)NN=C1CCCc2[nH]c3ccc(F)cc3c21` [Example 156, 2-(6-fluoro-1,2,3,9-tetrahydro-4H-carbazol-4-ylidene)hydrazinecarboximidamide], the figure is 98.8%; as for `Fc1ccc2[nH]c3c(c2c1)C(=NNC1=NCCN1)CCC3` [Example 157, 6-fluoro-1,2,3,9-tetrahydro-4H-carbazol-4-one 4,5-dihydro-1H-imidazol-2-ylhydrazone], 96.3%; as for `CN(N=C1CCCc2[nH]c3ccc(F)cc3c21)C1=NCCN1` [Example 158, 6-fluoro-1,2,3,9-tetrahydro-4H-carbazol-4-one 4,5-dihydro-1H-imidazol-2-yl(methyl)hydrazone], 68.7%.
The molecule `N=C(N)NN=C1CCCc2[nH]c3ccc(Br)cc3c21` [Example 159, 2-(6-bromo-1,2,3,9-tetrahydro-4H-carbazol-4-ylidene)hydrazinecarboximidamide] returned an inhibition at 0.01 µM (displacement of [3H]-LSD) of 61.1%.
`CN(N=C1CCCc2[nH]c3ccc(Br)cc3c21)C1=NCCN1` [Example 160, 6-bromo-1,2,3,9-tetrahydro-4H-carbazol-4-one 4,5-dihydro-1H-imidazol-2-yl(methyl)hydrazone] registered an inhibition at 1 µM under setting [1] of 76%.
Take `N=C(N)NN=C1CCCc2[nH]c3ccccc3c21` [Example 161, 2-(1,2,3,9-tetrahydro-4H-carbazol-4-ylidene)hydrazinecarboximidamide]: for the setting “displacement of [3H]-LSD”, the inhibition at 0.01 µM was 39.5%.
In general, pKi refers to −log10 of the Ki, conventionally taken in molar units. Turning to `COc1ccc2[nH]c3c(c2c1)C(=NNC(=N)N)CCC3` [Example 162, N′-(6-methoxy-1,2,3,9-tetrahydro-4H-carbazol-4-ylidene)carbonohydrazonic diamide], the pKi ([3H]-LSD 3.0 nM, Hela cell membranes, read-out: 5-HT6 Binding Ki) is 8.33. Under setting [1], the “% Inhibition” value was 98%.
In the case of `Cc1ccc2[nH]c3c(c2c1)C(=NNC(=N)N)CC(C)(C)C3` [Example 163, 2-(2,2,6-trimethyl-1,2,3,9-tetrahydro-4H-carbazol-4-ylidene)hydrazinecarboximidamide], under setting [2], the inhibition at 0.1 µM amounted to 38.5%.
The same measure, in the same setting: as for `Cc1ccc2[nH]c3c(c2c1)C(=NNC(=N)N)CC(c1ccccc1)C3` (centres unmarked) [Example 164, 2-(6-methyl-2-phenyl-1,2,3,9-tetrahydro-4H-carbazol-4-ylidene)hydrazinecarboximidamide], the figure is 27.6%.
Same read-out and setting: then `Cc1ccc2[nH]c3c(c2c1)C(=NNC(=N)N)CCC3` [Example 165, 2-(6-methyl-1,2,3,9-tetrahydro-4H-carbazol-4-ylidene)hydrazinecarboximidamide], with 57.2%; and `CC(C)c1ccc2[nH]c3c(c2c1)C(=NNC(=N)N)CC(C)(C)C3` [Example 166, 2-(6-isopropyl-2,2-dimethyl-1,2,3,9-tetrahydro-4H-carbazol-4-ylidene)hydrazinecarboximidamide], with 27.3%.
On to `CC(C)c1ccc2[nH]c3c(c2c1)C(=NNC(=N)N)CC(c1ccccc1)C3` (centres unmarked) [Example 167, 2-(6-isopropyl-2-phenyl-1,2,3,9-tetrahydro-4H-carbazol-4ylidene)hydrazinecarboximidamide], for which, under setting [2], the inhibition at 0.1 µM is 35.2%.
The same measure, in the same setting: then `CC1(C)CC(=NNC(=N)N)c2c([nH]c3ccc(OC(F)(F)F)cc23)C1` [Example 168, 2-[2,2-dimethyl-6-(trifluoromethoxy)-1,2,3,9-tetrahydro-4H-carbazol-4-ylidene]hydrazinecarboximidamide], with 26%.
Take `CC1(C)CC(=NNC(=N)N)c2c([nH]c3ccc(Br)cc23)C1` [Example 169, 2-(6-bromo-2,2-dimethyl-1,2,3,9-tetrahydro-4H-carbazol-4-ylidene)hydrazinecarboximidamide]: the inhibition at 0.1 µM under setting [2] stood at 33.9%.
`N=C(N)NN=C1CC(c2ccccc2)Cc2[nH]c3ccc(Br)cc3c21` (centres unmarked) [Example 170, 2-(6-bromo-2-phenyl-1,2,3,9-tetrahydro-4H-carbazol-4-ylidene)hydrazinecarboximidamide]: the inhibition at 0.1 µM under setting [2] amounted to 24.4%.
Same read-out and setting: then `CC1(C)CC(=NNC(=N)N)c2c([nH]c3ccc(Cl)cc23)C1` [Example 171, 2-(6-chloro-2,2-dimethyl-1,2,3,9-tetrahydro-4H-carbazol-4-ylidene)hydrazinecarboximidamide], with 30.7%.
Same read-out and setting: as for `N=C(N)NN=C1CC(c2ccccc2)Cc2[nH]c3ccc(Cl)cc3c21` (centres unmarked) [Example 172, 2-(6-chloro-2-phenyl-1,2,3,9-tetrahydro-4H-carbazol-4-ylidene)hydrazinecarboximidamide], the figure is 24.6%; as for `CC1(C)CC(=NNC(=N)N)c2c([nH]c3ccc(F)cc23)C1` [Example 173, 2-(6-fluoro-2,2-dimethyl-1,2,3,9-tetrahydro-4H-carbazol-4-ylidene)hydrazinecarboximidamide], 26.7%.
Still for that read-out and setting: as for `Cc1ccc2[nH]c3c(c2c1)C(=NN(C)C1=NCCN1)CC(C)(C)C3` [Example 174, 2,2,6-trimethyl-1,2,3,9-tetrahydro-4H-carbazol-4-one 4,5-dihydro-1H-imidazol-2-yl(methyl)-hydrazone], the figure is 25.5%.
As for `Cc1ccc2[nH]c3c(c2c1)C(=NN(C)C1=NCCN1)CC(c1ccccc1)C3` (centres unmarked) [Example 175, 6-methyl-2-phenyl-1,2,3,9-tetrahydro-4H-carbazol-4-one 4,5-dihydro-1H-imidazol-2-yl(methyl)-hydrazone], the inhibition at 0.1 µM under setting [2] was determined as 18.6%.
Take `Cc1ccc2[nH]c3c(c2c1)C(=NN(C)C1=NCCN1)CCC3` [Example 176, 6-methyl-1,2,3,9-tetrahydro-4H-carbazol-4-one 4,5-dihydro-1H-imidazol-2-yl(methyl)hydrazone]: under setting [2], the inhibition at 0.1 µM amounted to 24.2%.
